Measurements: ChEMBL document CHEMBL1201862, “PubChem BioAssay data set” (2004)
Each block holds one compound with its values, some of them ahead of it. Activity calls are given as the source filed them.

What was measured:
[1] = HepG2 cell cytotoxicity, dose response, cytotoxicity control for Shn3 inhibitor project, CellTiter-Glo, cherry-picked (AID 624134); assay type: functional, cell-based
[2] = system: A-375; test: MITF: Counter assay: A375 proliferation Measured in Cell-Based System Using Plate Reader - 2084-03_Inhibitor_Dose_DryPowder_Activity. [Related pubchem assays (depositor defined):AID488944]; assay type: functional; conditions: Homo sapiens
[3] = control 3'UTR Renilla luciferase suppression, dose response, counter-screen for Shn3 inhibitor project, cell-based, Clone20-Shn3RL, cherry-picked (AID 624133); assay type: functional
[4] = target: T1, Microphthalmia-associated transcription factor (Homo sapiens, UniProt O75030); test: TRPM1 promoter luciferase signal decrease, dose response, MITF inhibitor project, cell-based, SK-MEL-5, cherry-picked, set 3 (AID 493073); assay type: functional
T1 sequence (O75030 whole entry): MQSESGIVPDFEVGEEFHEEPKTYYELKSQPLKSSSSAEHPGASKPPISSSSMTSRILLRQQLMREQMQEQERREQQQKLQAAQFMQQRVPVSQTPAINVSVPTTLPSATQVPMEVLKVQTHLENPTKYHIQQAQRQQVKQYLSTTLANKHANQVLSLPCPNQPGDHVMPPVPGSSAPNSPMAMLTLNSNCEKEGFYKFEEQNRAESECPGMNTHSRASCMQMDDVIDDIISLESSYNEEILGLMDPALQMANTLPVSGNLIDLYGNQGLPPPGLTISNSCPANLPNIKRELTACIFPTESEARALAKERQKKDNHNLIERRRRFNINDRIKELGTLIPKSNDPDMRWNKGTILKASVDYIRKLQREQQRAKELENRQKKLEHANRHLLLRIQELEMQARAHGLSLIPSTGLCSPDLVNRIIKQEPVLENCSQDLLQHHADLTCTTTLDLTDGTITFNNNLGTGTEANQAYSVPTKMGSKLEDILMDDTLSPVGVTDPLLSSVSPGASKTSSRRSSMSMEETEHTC

[5] = system: Escherichia coli; test: microbe, parasite or virus in culture
[6] = target: Luciferin 4-monooxygenase (Photinus pyralis, UniProt P08659); test: firefly luciferase enzyme inhibitors, dose response, biochemical, luminescence (AID 1891)
Luciferin 4-monooxygenase, sequence (P08659 whole entry): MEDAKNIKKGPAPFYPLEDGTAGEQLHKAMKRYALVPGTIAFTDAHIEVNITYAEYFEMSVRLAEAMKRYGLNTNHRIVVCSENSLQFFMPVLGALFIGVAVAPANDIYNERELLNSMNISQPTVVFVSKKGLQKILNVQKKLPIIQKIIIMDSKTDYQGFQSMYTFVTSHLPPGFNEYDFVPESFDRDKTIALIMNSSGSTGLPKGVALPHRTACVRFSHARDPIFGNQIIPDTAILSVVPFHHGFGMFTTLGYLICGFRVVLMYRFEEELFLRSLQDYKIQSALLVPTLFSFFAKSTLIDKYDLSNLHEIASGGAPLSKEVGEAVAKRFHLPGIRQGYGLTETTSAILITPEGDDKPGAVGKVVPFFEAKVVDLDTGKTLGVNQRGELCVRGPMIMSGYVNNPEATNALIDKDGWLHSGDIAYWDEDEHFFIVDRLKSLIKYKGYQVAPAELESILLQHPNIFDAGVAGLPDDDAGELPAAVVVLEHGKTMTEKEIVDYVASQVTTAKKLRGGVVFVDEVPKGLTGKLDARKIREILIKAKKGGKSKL

[7] = Luminescence Cell-Based Dose Confirmation HTS to Identify Inhibitors of Platelet Dense Granule Release. [Related pubchem assays: 1663 (Primary HTS), 1678 (Summary of Project)]; assay type: functional
[8] = Shn3 3'UTR reporter inhibitors, dose response, cell-based, Clone20 osteoblasts, firefly luciferase, cherry-picked (AID 624132); assay type: functional;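 further: firefly luciferase luminescence from reporter carrying the Shn3 3'UTR in osteoblasts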
[9] = target: T2, X-box-binding protein 1 (Homo sapiens, UniProt P17861); assay type: functional, Cricetulus griseus;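 further: confirmatory dose-response counter-screen serving a CHOP assay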
T2 sequence (P17861 whole entry): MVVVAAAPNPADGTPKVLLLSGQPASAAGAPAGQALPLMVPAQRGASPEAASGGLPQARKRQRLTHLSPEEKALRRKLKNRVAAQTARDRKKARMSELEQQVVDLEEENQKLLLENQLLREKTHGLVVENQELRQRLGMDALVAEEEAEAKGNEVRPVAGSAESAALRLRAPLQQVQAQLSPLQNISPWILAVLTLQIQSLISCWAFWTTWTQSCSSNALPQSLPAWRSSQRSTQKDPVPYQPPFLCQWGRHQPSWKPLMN

[10] = target: T3, Short transient receptor potential channel 4 (Mus musculus, UniProt Q9QUQ5); test: mouse TRPC4 channel activators, dose response, cell-based, HEK293 TRPC4/mu-opioid, Fluo-4 calcium (AID 434937); assay type: functional
T3 sequence (Q9QUQ5 whole entry): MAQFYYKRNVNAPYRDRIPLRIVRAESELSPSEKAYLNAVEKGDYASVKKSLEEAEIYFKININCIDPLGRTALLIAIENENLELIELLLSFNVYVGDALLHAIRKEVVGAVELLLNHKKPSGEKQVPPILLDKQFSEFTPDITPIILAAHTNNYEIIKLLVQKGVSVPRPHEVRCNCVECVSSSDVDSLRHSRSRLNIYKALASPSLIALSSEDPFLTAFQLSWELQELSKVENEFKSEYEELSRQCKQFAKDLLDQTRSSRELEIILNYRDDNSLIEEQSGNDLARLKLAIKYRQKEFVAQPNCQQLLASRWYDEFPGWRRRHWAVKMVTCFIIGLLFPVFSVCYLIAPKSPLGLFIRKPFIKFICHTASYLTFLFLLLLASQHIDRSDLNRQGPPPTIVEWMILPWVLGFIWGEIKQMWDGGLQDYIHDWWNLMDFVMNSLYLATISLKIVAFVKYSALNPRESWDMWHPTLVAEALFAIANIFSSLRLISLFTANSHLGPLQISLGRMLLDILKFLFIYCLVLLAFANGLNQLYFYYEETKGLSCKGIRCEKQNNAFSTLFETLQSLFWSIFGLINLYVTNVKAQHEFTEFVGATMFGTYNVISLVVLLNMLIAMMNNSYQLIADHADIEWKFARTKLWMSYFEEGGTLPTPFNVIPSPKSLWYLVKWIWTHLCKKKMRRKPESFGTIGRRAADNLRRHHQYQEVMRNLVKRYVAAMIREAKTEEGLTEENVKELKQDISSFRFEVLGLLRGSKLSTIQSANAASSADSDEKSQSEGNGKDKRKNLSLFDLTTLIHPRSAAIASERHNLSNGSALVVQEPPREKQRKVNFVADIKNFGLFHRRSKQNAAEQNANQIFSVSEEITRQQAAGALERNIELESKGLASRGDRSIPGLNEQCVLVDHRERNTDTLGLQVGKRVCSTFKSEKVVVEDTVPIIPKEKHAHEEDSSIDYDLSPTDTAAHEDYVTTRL

[11] = target: T3, Short transient receptor potential channel 4; test: mouse TRPC4 channel inhibitors, dose response, cell-based, HEK293 TRPC4/mu-opioid, Fluo-4 calcium (AID 434942); assay type: functional;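 further: potency of inhibitors blocking the TRPC4 calcium response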
[12] = C. albicans growth with fluconazole, confirmation, fluorescence, retest (AID 2467); assay type: functional, cell-based
[13] = NIH-3T3 fibroblast cytotoxicity, dose response, cytotoxicity control, cell-based, fluorescence, Alamar Blue, secondary assay (AID 2327); assay type: functional;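 further: NIH-3T3 mouse fibroblasts cultured with fluconazole at 8 µg/mL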
[14] = target: 5-hydroxytryptamine receptor 5A (Homo sapiens, UniProt P47898); test: Counterscreen for agonists of OPRM1-OPRD1 heterodimerization: luminescence-based cell-based high throughput dose response assay to identify agonists of 5-hydroxytryptamine (serotonin) 5A receptor (HTR5A). [Related pubchem assays (depositor defined):AID504326, AID504355, AID504692, AID504904, AID504905]; assay type: functional
5-hydroxytryptamine receptor 5A, sequence (P47898 whole entry): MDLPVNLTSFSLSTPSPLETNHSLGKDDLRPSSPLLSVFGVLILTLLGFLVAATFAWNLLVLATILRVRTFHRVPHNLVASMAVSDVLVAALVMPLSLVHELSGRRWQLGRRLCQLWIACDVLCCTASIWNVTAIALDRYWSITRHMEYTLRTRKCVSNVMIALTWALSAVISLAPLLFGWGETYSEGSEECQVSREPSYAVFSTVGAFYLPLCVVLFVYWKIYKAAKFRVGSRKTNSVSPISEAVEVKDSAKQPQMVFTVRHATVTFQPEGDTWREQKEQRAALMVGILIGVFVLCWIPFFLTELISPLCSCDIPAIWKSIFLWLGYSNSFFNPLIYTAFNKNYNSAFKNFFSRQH

[15] = target: Delta-type opioid receptor (Homo sapiens, UniProt P41143); test: Counterscreen for agonists of heterodimerization of the mu 1 (OPRM1) and delta 1 (OPRD1) opioid receptors: Luminescence-based cell-based high throughput dose response assay to identify agonists of OPRD1 homodimerization. [Related pubchem assays (depositor defined):AID504326, AID504355, AID504692, AID504904, AID504905]; assay type: functional
Delta-type opioid receptor, sequence (P41143 whole entry): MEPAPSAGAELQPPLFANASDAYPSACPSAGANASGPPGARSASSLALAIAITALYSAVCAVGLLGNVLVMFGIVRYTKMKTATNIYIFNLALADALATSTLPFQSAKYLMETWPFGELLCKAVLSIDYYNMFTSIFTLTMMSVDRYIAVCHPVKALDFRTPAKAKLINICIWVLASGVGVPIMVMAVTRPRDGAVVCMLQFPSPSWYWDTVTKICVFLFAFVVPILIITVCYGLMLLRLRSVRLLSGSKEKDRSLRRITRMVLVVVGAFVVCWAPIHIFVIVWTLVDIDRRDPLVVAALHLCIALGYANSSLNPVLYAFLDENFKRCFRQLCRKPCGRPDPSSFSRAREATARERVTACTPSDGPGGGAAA

[16] = target: Mu-type opioid receptor (Homo sapiens, UniProt P35372); test: Counterscreen for agonists of heterodimerization of the mu 1 (OPRM1) and delta 1 (OPRD1) opioid receptors: Luminescence-based cell-based high throughput dose response assay to identify agonists of OPRM1 homodimerization.; assay type: functional;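 further: U2OS cells expressing OPRM1 and beta-arrestin as split beta-galactosidase partners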
Mu-type opioid receptor, sequence (P35372 whole entry): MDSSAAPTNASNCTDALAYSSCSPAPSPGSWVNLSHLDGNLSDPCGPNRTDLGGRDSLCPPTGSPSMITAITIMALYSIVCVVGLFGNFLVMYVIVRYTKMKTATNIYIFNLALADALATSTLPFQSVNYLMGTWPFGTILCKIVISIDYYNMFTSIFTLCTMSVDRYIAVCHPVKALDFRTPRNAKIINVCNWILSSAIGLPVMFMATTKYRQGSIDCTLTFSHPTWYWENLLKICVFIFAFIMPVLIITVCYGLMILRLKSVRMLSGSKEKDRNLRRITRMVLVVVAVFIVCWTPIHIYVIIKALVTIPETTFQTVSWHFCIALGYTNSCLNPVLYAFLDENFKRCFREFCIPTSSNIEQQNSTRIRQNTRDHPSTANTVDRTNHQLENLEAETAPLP

[17] = cytotoxicity in HEK-293T cells, dose response, cytotoxicity control for TCR NF-kB inhibitor project, luminescence, T-cell screen hits (AID 489026); assay type: functional, cell-based;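 further: cells exposed to compound about 14 hours before the viability readout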

Structure (SMILES): O=C(/C=C/Nc1ccccc1Br)c1ccccn1
- AC50 [1]: 47.7 µM (active)
- AC50 [2]: 27.6 µM (active)
- AC50 [3]: 30.4 µM (active)
- AC50 [4]: 0.899 µM (active)
- AC50 [5]: > 150 µM (inactive)
- EC50 [6]: 1.34 µM (active)
- EC50 [7]: 4.02 µM (active)
- AC50 [8]: 1.8 µM (active)

Structure (SMILES): C=CCSc1nc(-c2ccc(OCCCC)cc2)n[nH]1
- EC50 [12]: > 38 µM (not active)
- Absolute IC50 (XBP1) [9]: < 10 µM
- EC50 [13]: > 150 µM (inactive)

Structure (SMILES): O=C1CC(c2cc(F)ccc2F)c2cc3c(cc2N1)CCC3 (centres undefined)
- IC50 [17]: > 80 µM (inactive)

The remaining lines, values ahead:

- Absolute IC50 (XBP1) [9]: 10 µM
Structure (SMILES): CC(C)c1ccccc1NC(=O)Cn1c(/C=C/c2ccccc2)nc2ccccc21

- EC50 [10]: 8.41 µM (active)
- EC50 [11]: 3.35 µM (active)
Structure (SMILES): Cc1cc(NCc2ccccc2)nc2ccccc12

- EC50 [10]: 0.267 µM (active)
- EC50 [14]: > 92.5 µM (inactive)
- EC50 [15]: > 92.5 µM (inactive)
- EC50 [16]: > 92.5 µM (inactive)
Structure (SMILES): Cc1ccc(C)c(-n2cc(CNCCc3cnccn3)c(-c3ccccc3)n2)c1
